In PubChem BioAssay (NCI):
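Grown in 96-well plates, cells were treated for 48 hours with each compound at five concentrations. Insufficient inhibition: endpoint recorded as highest concentration tested. GI50 = concentration required for 50% inhibition of growth. TGI marks complete inhibition of growth.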

Columns and labels:
Test in all cases: growth of human tumour cells (NCI), 48 h
A549 NSCLC = tested on: A549 NSCLC
NCI-H23 lung = tested on: NCI-H23 lung
NCI-H522 lung = tested on: NCI-H522 lung
UACC-62 melanoma = tested on: UACC-62 melanoma
MCF7 breast = tested on: MCF7 breast
MDA-MB-435 = tested on: MDA-MB-435
A498 renal = tested on: A498 renal
SF-295 CNS = tested on: SF-295 CNS
SNB-75 CNS = tested on: SNB-75 CNS
SK-MEL-2 melanoma = tested on: SK-MEL-2 melanoma
TK-10 renal = tested on: TK-10 renal
SR leukemia = tested on: SR leukemia
UACC-257 melanoma = tested on: UACC-257 melanoma
MDA-MB-231 breast = tested on: MDA-MB-231 breast
HS 578T breast = tested on: HS 578T breast
U251 CNS = tested on: U251 CNS
RXF 393 renal = tested on: RXF 393 renal
HL-60(TB) leukemia = tested on: HL-60(TB) leukemia
SK-MEL-5 melanoma = tested on: SK-MEL-5 melanoma
OVCAR-3 ovarian = tested on: OVCAR-3 ovarian
IGROV1 ovarian = tested on: IGROV1 ovarian
SF-268 CNS = tested on: SF-268 CNS
HCT-116 colon = tested on: HCT-116 colon
T-47D breast = tested on: T-47D breast
HOP-92 NSCLC = tested on: HOP-92 NSCLC
SN12C renal = tested on: SN12C renal
NCI/ADR-RES ovarian = tested on: NCI/ADR-RES ovarian

## S=C(Nc1ccc(Cl)cc1)Nc1ccc(Cl)cc1 (tested in a mixture with another compound)
A549 NSCLC
  TGI: > 100 µM
NCI-H23 lung
  GI50: 1.87 µM
  TGI: 6.05 µM
NCI-H522 lung
  GI50: 1.39 µM
  TGI: 4.37 µM
UACC-62 melanoma
  GI50: 1.75 µM
  TGI: 4.28 µM
MCF7 breast
  GI50: 2.89 µM
  TGI: 8.09 µM
MDA-MB-435
  GI50: 2.45 µM
  TGI: 7.86 µM
A498 renal
  GI50: 1.62 µM
  TGI: 6.56 µM
SF-295 CNS
  GI50: 1.75 µM
  TGI: 4.38 µM
SNB-75 CNS
  GI50: 1.65 µM
  TGI: 4.87 µM
SK-MEL-2 melanoma
  GI50: 2.34 µM
  TGI: 5.04 µM
TK-10 renal
  GI50: 2.24 µM
  TGI: 5.9 µM
SR leukemia
  GI50: 2.38 µM
  TGI: 5.74 µM
UACC-257 melanoma
  GI50: 2.65 µM
  TGI: 6.23 µM
MDA-MB-231 breast
  GI50: 1.86 µM
  TGI: 3.68 µM
HS 578T breast
  GI50: 2.37 µM
  TGI: > 100 µM
U251 CNS
  GI50: 1.64 µM
  TGI: 3.52 µM
RXF 393 renal
  GI50: 2.13 µM
  TGI: 5.29 µM
HL-60(TB) leukemia
  GI50: 1.98 µM
  TGI: 4.98 µM
SK-MEL-5 melanoma
  GI50: 1.55 µM
  TGI: 2.94 µM
OVCAR-3 ovarian
  GI50: 1.69 µM
  TGI: 4.48 µM
IGROV1 ovarian
  GI50: 3.26 µM
  TGI: > 100 µM
SF-268 CNS
  GI50: 3.2 µM
  TGI: 15.8 µM
HCT-116 colon
  GI50: 1.46 µM
  TGI: 3.07 µM
T-47D breast
  GI50: 3.75 µM
  TGI: 23.9 µM
HOP-92 NSCLC
  GI50: 1.55 µM
  TGI: 4.56 µM
SN12C renal
  GI50: 2.49 µM
  TGI: 7.32 µM
NCI/ADR-RES ovarian
  GI50: 2.54 µM
  TGI: 13.9 µM
